Legend:
[1] = tested on: TRAF2 overexpression in U2OS cells; experiment: Cell Painting morphological profile matching to TRAF2 overexpression; assay type: cell-based, human; conditions: Pearson correlation of Cell Painting signatures, U2OS cells
Procedure, shortened: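 Compound-treated U2OS cells were stained with six fluorescent labels and imaged, and morphological profiles were standardized plate-wise against controls. Replicate profiles were averaged into signatures. Compound and gene-overexpression signatures were matched by Pearson correlation.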

YAP1 [2] = experiment: YAP1 immunofluorescence in H9 cells; assay type: cell-based, human; conditions: 10 μM, 24 hours
Method: (§1) H9 hPSCs (WiCell) were maintained on vitronectin (Thermo Fisher)-coated plates in Essential 8 (E8) medium. The cells were routinely passaged using 0.5 mM EDTA and treated with 5 μM Y-27632 dihydrochloride (Tocris) on the first day. For testing the effects of the small molecules, H9 hPSCs were seeded at 50K cells/cm^2 on vitronectin-coated plates in E8 medium supplemented with 5 μM Y-27632 dihydrochloride (day 0). On day 1, the medium was switched to E8 medium. On day 2, the medium was switched to E8 medium supplemented with the small molecules. Following overnight incubation, the cells were collected for subsequent analysis on day 3.
The cells were fixed with 4% formaldehyde for 15 mins at room temperature. The cells were permeabilized and blocked with PBS containing 2% BSA and 0.1% Triton-X100. The cells were incubated with a primary antibody against YAP1 (sc-101199) at 1:1000 dilution in a blocking buffer overnight at 4° C. Then, a goat anti-mouse Alexa Fluor 488 conjugated secondary antibody was added for 1 hour at room temperature. […] Images were collected with Olympus FV1200 microscope and analyzed with CellProfiler. […] The cell cytoplasm was determined as the region outside nuclei but within the cell bodies. Then, an average pixel intensity of YAP in the nucleus and cytoplasm was calculated to determine YAP translocation

YAP1 [3] = experiment: Western blot of phospho-YAP1 (S127) in H9 cells; assay type: cell-based, human; conditions: 24 hrs
Method: as §1
YAP1-related Western blotting: The cells were lysed in RIPA buffer (Pierce) supplemented with Halt Protease inhibitor cocktail and Halt Phosphatase inhibitor cocktail. Cells were lysed in hot Tris-SDS buffer (pH 7.6) and boiled for 5 minutes at 95° C. The protein concentration of each sample was quantified using the Pierce BCA protein assay (Thermo Fisher). The proteins were resolved by SDS-PAGE and transferred to PVDF membranes using the Trans-Blot Turbo Transfer system (Bio-Rad). The membranes were blocked in 5% non-fat milk in TBS-T for up to 1 hour at room temperature and incubated with primary antibodies in 5% bovine serum albumin in TBS-T overnight at 4° C. […]

Yap1 [4] = experiment: Nuclear Yap1 immunofluorescence in KP230 cells; assay type: cell-based, mouse
Source text: YAP1 cell culture and treatments: Eisinger lab: Murine KP230 cells, a Yap1-dependent cancer cell line, were derived from a tumor from the KP mouse model (Kras^G12/D; Trp53^f/fl), as described in Eisinger-Mathason, T. S. K. et al., Proc. Natl. Acad. Sci. U.S.A 112 (2015): E3402-11, which is hereby incorporated by reference in its entirety. STS-109 UPS cells were derived from a human UPS tumor and validated by Rebecca Gladdy, MD (Sinai Health System, Toronto, Ontario, Canada). TC32 cells were a gift from Patrick Grohar, MD, PhD (Children's Hospital of Philadelphia). HT-1080, HCT-116, and HEK293T cells were purchased from ATCC. KP230, HT-1080, and HEK-293T cells were grown in DMEM with 10% FBS, 1% L-glutamine, and 1% penicillin/streptomycin (P/S). […]
YAP1-related immunofluorescence and image analysis: Cells were grown on poly-L-lysine-coated chamber slides were fixed in 4% PFA (15 minutes at room temperature), permeabilized with 0.5% Triton-X100/PBS (15 minutes at room temperature), and blocked with 5% goat serum (Vector Laboratories S-1000; 1 hour at room temperature). […] The ratio of nuclear to total Yap1 expression was determined after subtracting out background GFP signal from no-primary antibody controls.

Structure (SMILES): c1ccc(CNc2ncnc3ccccc23)cc1 [BRD-K43796186, N-benzylquinazolin-4-amine]
- Corr. to TRAF2 [1]: −0.3778
- YAP1 nuclear localization (YAP1 [2]): increased YAP1 nuclear localization
- YAP1 S127 phosphorylation (YAP1 [3]): decreased YAP1 S127 phosphorylation
- Yap1 nuclear localization (Yap1 [4]): significantly attenuated

From patent US20230255970A1, “COMPOSITIONS AND METHODS FOR TREATING PROLIFERATIVE DISEASES” (The Broad Institute, Inc., priority 2020, published 2023)
